In patent publication US12390532B2, “ALK protein regulator and anti-tumor application thereof” (SHANGHAITECH UNIVERSITY, priority 2019, dated 2025):
Like-named read-outs stand apart in the source and are kept apart here.

Legend:
[1] = target: T1, ALK protein (Homo sapiens, UniProt Q9UM73); assay: Western blot of ALK protein degradation in SR cells; assay type: cell-based
T1 construct: We studied the total ALK protein in the anaplastic large cell lymphoma cell line SR; host or cells: SR cells (human anaplastic large cell lymphoma); the other entry of the earlier key: NPM1 (P06748, Nucleophosmin)
Method: The ALK gene rearrangement positive cell line used was SR cells (NPM-ALK, human anaplastic large cell lymphoma cells). MDA-MB231 was a triple-negative breast cancer cell. Both SR cells and MDA-MB231 cells were purchased from ATCC. The 293T cells overexpressing EML4-ALK G1202R were the cells constructed and verified for correct expression by this laboratory.
Tumor cells were seeded in a 24-well plate containing 1 ml of RPMI1640 medium at 1.5-3×10^5 cells/well. The next day, the cells were treated with different concentrations of drugs. After 16 hours, the supernatant was removed and the cells were washed with PBS. The cells were placed on ice and the cells were treated with RIPA protein lysate containing Halt protease and phosphatase inhibitors. The lysate was centrifuged at 10000RPM at 4° C. for 10 minutes, and the supernatant was collected. The same amount of protein was added to the 4×SDS sample solution, denatured at 95° C. for 5 minutes and freezen to −20° C., or protein electrophoresis was directly performed. GenScript, a 4-20% gradient protein precast gel was used as the electrophoresis gel. The electrophoresis tank and related components were purchased from Bio-rad, and the electrophoresis conditions were equal pressure 120 v for 2 hours. PVDF membrane was used for the transfer membrane, and the transfer membrane system was placed on ice with an equal current of 400 mA for one hour. After transferring the membrane, it was sealed with TBST+5% milk powder for half an hour. For the specific steps of immunoblotting, refer to the antibody instructions of Cell Signaling Technology.
DC50 (the drug concentration corresponding to protein degradation to 50%) calculation: according to the gray value of the Western blotting band after the drug is processed, the relationship curve between the drug concentration and the gray value is fitted by Prism GraphPad software to calculate the drug concentration range corresponding half of the gray value.
The cells with different concentrations (0, 10, 50, 100, 500 nM) of Brigatinib were first treated in SR cells for 16 hours. Western blotting was used on cell lysate to detect the effect of Brigatinib on the content of ALK protein (FIG. 2).

[2] = test system: SR cells (NPM-ALK, human anaplastic large cell lymphoma cells); assay: Proliferation inhibition (IC50) in SR cells, CCK8 (WST) reagent; assay type: cell-based; conditions: 72 h
Method: The ALK gene rearrangement positive cell line used was SR cells (NPM-ALK, human anaplastic large cell lymphoma cells). MDA-MB231 was a triple-negative breast cancer cell. Both SR cells and MDA-MB231 cells were purchased from ATCC.
The tumor cell line used was daily cultured in a 37° C. incubator containing 5% CO2. The medium was RPMI1640 supplemented with 10% FCS and Penicillin-Streptomycin.
The IC50 of the compound of the present disclosure was determined using Promega's Cell Titer Blue, Cell Titer GLO or commercially available WST reagents. The specific steps were as follows: the cells were seeded in a 96-well plate containing 100 microliters of RPMI medium containing serum at a number of 2000 cells/well. On the second day, the original drug and the compound of the present disclosure were serially diluted and added to the cells. After 72 hours of treatment with the compound of the present disclosure, the cell activity detection reagent was added to the culture medium for cell activity determination according to the instructions. The negative control was DMSO, and the positive control was the original drug, and the cells were treated in the same manner as the compound of the present disclosure. The growth inhibition of the compounds of the present disclosure on cells was plotted by Prism Graphpad software and the IC50 of the compounds of the present disclosure was counted from it.
We conducted dose-dependent experiments on the designed and synthesized compounds of the present disclosure in SR cells. […] The cells were treated with different concentrations of compounds (starting at 10 μM, 3 times dilution factor, 10 concentrations). After 72 hours, the cells were detected using CCK8 reagent (WST).

[3] = SR cells, WST reagent, 72 hours, read-out: IC50 (half inhibitory concentration), Brigatinib series in lymphoma cell lines

T1 sequence (Q9UM73 with tags, fused parts or gaps): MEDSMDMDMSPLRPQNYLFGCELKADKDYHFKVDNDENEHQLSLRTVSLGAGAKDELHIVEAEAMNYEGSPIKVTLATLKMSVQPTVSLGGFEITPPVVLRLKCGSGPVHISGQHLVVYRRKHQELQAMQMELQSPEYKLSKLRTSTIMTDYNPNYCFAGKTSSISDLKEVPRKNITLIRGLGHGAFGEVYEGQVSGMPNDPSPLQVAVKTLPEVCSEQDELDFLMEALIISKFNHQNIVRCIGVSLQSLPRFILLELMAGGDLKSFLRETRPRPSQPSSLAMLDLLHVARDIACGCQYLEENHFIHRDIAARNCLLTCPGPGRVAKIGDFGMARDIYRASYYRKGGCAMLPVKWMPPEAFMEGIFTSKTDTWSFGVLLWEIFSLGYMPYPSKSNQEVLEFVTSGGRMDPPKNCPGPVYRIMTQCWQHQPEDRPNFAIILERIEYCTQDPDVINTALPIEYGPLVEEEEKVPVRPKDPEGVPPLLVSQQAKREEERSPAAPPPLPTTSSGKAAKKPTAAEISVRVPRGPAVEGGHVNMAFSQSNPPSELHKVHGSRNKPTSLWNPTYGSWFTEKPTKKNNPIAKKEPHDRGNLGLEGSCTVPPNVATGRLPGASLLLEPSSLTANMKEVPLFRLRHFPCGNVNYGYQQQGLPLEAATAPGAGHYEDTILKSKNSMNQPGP

SMILES | IC50 [2, 3] [nM] | further results
COc1cc(N2CCC(N3CCNCC3)CC2)ccc1Nc1ncc(Cl)c(Nc2ccccc2P(C)(C)=O)n1 [Brigatinib derivative C (SIAIS164005), (2-((5-Chloro-2-((2-methoxy-4-(4-(piperazin-1-yl)piperidin-1-yl)phenyl)amino)pyrimidin-4-yl)amino)phenyl) dimethyl phosphine oxide, reference compound] | 11.1 | degradation effect on ALK protein ([1]; 16 hours, concentrations up to 500 nM): no degradation effect
CCc1cc2c(cc1N1CCC(N3CCN(C(=O)CNc4cccc5c4CN(C4CCC(=O)NC4=O)C5=O)CC3)CC1)C(C)(C)c1[nH]c3cc(C#N)ccc3c1C2=O (stereo not drawn) [SIAIS262091, 8-(4-(4-{(2-(2,6-dioxopiperidin-3-yl)-1-oxoisoindolin-4-yl)aminoacetyl)piperazin-1-yl)piperidin-1-yl)-9-ethyl-6,6-dimethyl-11-oxo-6,11-dihydro-5H-benzo[b]carbazole-3-carbonitrile] |  | concentration from which a degradation effect on ALK protein is shown [1]: less than 0.005 nM; DC50 ([1]; read-out: DC50 (half degradation concentration), Alectinib series in lymphoma cell lines, 16 hours, concentration range at half of the gray value): 0.05 to 0.5 nM; IC50 ([2]; read-out: IC50 (half inhibitory concentration), Alectinib series in lymphoma cell lines, SR cells, WST reagent, 72 hours): ~0.34 nM
COc1cc(N2CCC(N3CCN(C(=O)COCCOCCOCCOCCOCCNc4cccc5c4CN(C4CCC(=O)NC4=O)C5=O)CC3)CC2)ccc1Nc1ncc(Cl)c(Nc2ccccc2P(C)(C)=O)n1 (stereo not drawn) [SIAIS352057, 3-(4-((17-(4-(1-(4-((5-chloro-4-((2-(dimethylphosphono)phenyl)amino)pyrimidin-2-yl)amino)-3-methoxyphenyl)piperidin-4-yl)piperazin-1-yl)-17-oxo-3,6,9,12,15-pentaoxaheptadecyl)amino)-1-oxoisoindolin-2-yl)piperidine-2,6-dione] | 102 ± 43.9 | 
COc1cc(N2CCC(N(C)C(=O)CSc3cccc4c3CN(C3CCC(=O)NC3=O)C4=O)CC2)ccc1Nc1ncc(Cl)c(Nc2ccccc2P(C)(C)=O)n1 (stereo not drawn) [SIAIS353007, N-(1-(4-((5-chloro-4-((2-(dimethylphosphono)phenyl)amino)pyrimidin-2-yl)amino)-3-methoxyphenyl)piperidin-4-yl)-2-((2-(2,6-dioxopiperidin-3-yl)-1-oxoisoindolin-4-yl)thio)-N-methyl acetamide] | 17.1 ± 10.9 | 
COc1cc(N2CCC(N(C)CCCCSc3cccc4c3CN(C3CCC(=O)NC3=O)C4=O)CC2)ccc1Nc1ncc(Cl)c(Nc2ccccc2P(C)(C)=O)n1 (stereo not drawn) [SIAIS353043, 3-(4-((4-((1-(4-((5-chloro-4-((2-(dimethylphosphono)phenyl)amino)pyrimidin-2-yl)amino)-3-methoxyphenyl)piperidin-4-yl) (methyl)amino)butyl)thio)-1-oxoisoindolin-2-yl)piperidine-2,6-dione] | 0.9 ± 0.2 | 
COc1cc(N2CCC(N(C)CCCC#Cc3cccc4c3CN(C3CCC(=O)NC3=O)C4=O)CC2)ccc1Nc1ncc(Cl)c(Nc2ccccc2P(C)(C)=O)n1 (stereo not drawn) [SIAIS353050, 3-(4-(5-((1-(4-((5-chloro-4-((2-(dimethylphosphono)phenyl)amino)pyrimidin-2-yl)amino)-3-methoxyphenyl)piperidin-4-yl)(methyl)amino)pent-1-yn-1-yl)-1-oxoisoindolin-2-yl)piperidine-2,6-dione] | 4.8 ± 0.1 | 

The next lines start with results.

IC50 [2, 3] [nM] | SMILES | further results
1.1 | COc1cc(N2CCC(N3CCN(CCCCC#Cc4cccc5c4CN(C4CCC(=O)NC4=O)C5=O)CC3)CC2)ccc1Nc1ncc(Cl)c(Nc2ccccc2P(C)(C)=O)n1 (stereo not drawn) [SIAIS262040, 3-(4-(6-(4-(1-(4-((5-chloro-4-((2-(dimethylphosphono)phenyl)amino)pyrimidin-2-yl)amino)-3-methoxyphenyl)piperidin-4-yl)piperazin-1-yl)hex-1-yn-1-yl)-1-oxoisoindolin-2-yl)piperidine-2,6-dione] | DC50 ([1]; 16 hours, concentration range at half of the gray value, read-out: DC50 (half degradation concentration), Brigatinib series in lymphoma cell lines): 0.05 to 0.5 nM
22 ± 10.9 | COc1cc(N2CCC(N3CCN(C(=O)COCCOCCNc4cccc5c4CN(C4CCC(=O)NC4=O)C5=O)CC3)CC2)ccc1Nc1ncc(Cl)c(Nc2ccccc2P(C)(C)=O)n1 (stereo not drawn) [SIAIS352054, 3-(4-((2-(2-(2-(4-(1-(4-((5-chloro-4-((2-(dimethylphosphono)phenyl)amino)pyrimidine-2-yl)amino)-3-methoxyphenyl)piperidin-4-yl)piperazin-1-yl)-2-oxoethoxy)ethoxy)ethyl)amino)-1-oxoisoindolin-2-yl)piperidine-2,6-dione] | 
15 ± 4.4 | COc1cc(N2CCC(N3CCN(C(=O)COCCOCCOCCNc4cccc5c4CN(C4CCC(=O)NC4=O)C5=O)CC3)CC2)ccc1Nc1ncc(Cl)c(Nc2ccccc2P(C)(C)=O)n1 (stereo not drawn) [SIAIS352055, 3-(4-((2-(2-(2-(2-(4-(1-(4-((5-chloro-4-((2-(dimethylphosphono)phenyl)amino)pyrimidin-2-yl)amino)-3-methoxyphenyl)piperidin-4-yl)piperazin-1-yl)-2-oxoethoxy)ethoxy)ethoxy)ethyl)amino)-1-oxoisoindolin-2-yl)piperidine-2,6-dione] | 
84.5 ± 17.3 | COc1cc(N2CCC(N3CCN(C(=O)COCCOCCOCCOCCNc4cccc5c4CN(C4CCC(=O)NC4=O)C5=O)CC3)CC2)ccc1Nc1ncc(Cl)c(Nc2ccccc2P(C)(C)=O)n1 (stereo not drawn) [SIAIS352056, 3-(4-((14-(4-(1-(4-((5-chloro-4-((2-(dimethylphosphono)phenyl)amino)pyrimidin-2-yl)amino)-3-methoxyphenyl)piperidin-4-yl)piperazin-1-yl)-14-oxo-3,6,9,12-tetraoxatetradecyl)amino)-1-oxoisoindolin-2-yl)piperidine-2,6-dione] | 
10.5 ± 5.6 | COc1cc(N2CCC(N(C)C(=O)CCCCCSc3cccc4c3CN(C3CCC(=O)NC3=O)C4=O)CC2)ccc1Nc1ncc(Cl)c(Nc2ccccc2P(C)(C)=O)n1 (stereo not drawn) [SIAIS353009, N-(1-(4-((5-chloro-4-((2-(dimethylphosphono)phenyl)amino)pyrimidin-2-yl)amino)-3-methoxyphenyl)piperidin-4-yl)-6-((2-(2,6-dioxopiperidin-3-yl)-1-oxoisoindolin-4-yl)thio)-N-methyl hexanamide] | 
0.5 ± 0.2 | COc1cc(N2CCC(N(C)CCCCCCSc3cccc4c3CN(C3CCC(=O)NC3=O)C4=O)CC2)ccc1Nc1ncc(Cl)c(Nc2ccccc2P(C)(C)=O)n1 (stereo not drawn) [SIAIS353041, 3-(4-((6-((1-(4-((5-chloro-4-((2-(dimethylphosphono)phenyl)amino)pyrimidin-2-yl)amino)-3-methoxyphenyl)piperidin-4-yl)(methyl)amino)hexyl)thio)-1-oxoisoindolin-2-yl)piperidine-2,6-dione] | 
1.1 ± 0.2 | COc1cc(N2CCC(N(C)CCCCCSc3cccc4c3CN(C3CCC(=O)NC3=O)C4=O)CC2)ccc1Nc1ncc(Cl)c(Nc2ccccc2P(C)(C)=O)n1 (stereo not drawn) [SIAIS353044, 3-(4-((5-((1-(4-((5-chloro-4-((2-(dimethylphosphono)phenyl)amino)pyrimidin-2-yl)amino)-3-methoxyphenyl)piperidin-4-yl)(methyl)amino)pentyl)thio)-1-oxoisoindolin-2-yl)piperidine-2,6-dione] | 
0.6 ± 0.4 | COc1cc(N2CCC(N3CCN(C(=O)NCCCCSc4cccc5c4CN(C4CCC(=O)NC4=O)C5=O)CC3)CC2)ccc1Nc1ncc(Cl)c(Nc2ccccc2P(C)(C)=O)n1 (stereo not drawn) [SIAIS353062, 4-(1-(4-((5-chloro-4-((2-(dimethylphosphono)phenyl)amino)pyrimidin-2-yl)amino)-3-methoxyphenyl)piperidin-4-yl)-N-(4-((2-(2,6-dioxopiperidin-3-yl)-1-oxoisoindolin-4-yl)thio)butyl)piperazine-1-carboxamide] | 
